Results published in patent US9326506B2, “Preparation method, agricultural composition and applications of natural brassinolide analogs” (CHENGDU NEWSUN CROPSCIENCE CO., LTD, priority 2012, dated 2016).

Tested on: rice
Experiment: Low temperature assay on rice seedlings
Format: in vivo
Outline: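 Nine-day-old etiolated rice seedlings (grown on water at 30 °C±2 °C, dark) immersed in brassinolide analogues at 1–0.0001 mg/L or pure water, held at 1–5 °C for 24 hr. Plant height, leaf area, root weight read at 3, 6, 9, 12 days; leaf and tiller number at 12 days.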

CC[C@@H](C(C)C)[C@@H](O)[C@H](O)[C@@H](C)[C@H]1CCC2C3COC(=O)C4C[C@H](O)[C@H](O)C[C@]4(C)C3CC[C@@]21C (stereo partly shown) [BR2]
Height (0.01 mg/l, 3 °C, 9 days): 7.7 cm
Weight of root (0.01 mg/l, 3 °C, 9 days): 2.9 g
Area of leaf (0.01 mg/l, 3 °C, 12 days): 13.2 cm^2
Height (0.01 mg/l, 3 °C, 12 days): 7.9 cm
Number of leaf (0.01 mg/l, 3 °C, 12 days): 3
Number of tiller (0.01 mg/l, 3 °C, 12 days): 2
Weight of root (0.01 mg/l, 3 °C, 12 days): 2.9 g
Area of leaf (0.01 mg/l, 4 °C, 3 days): 10.8 cm^2
Height (0.01 mg/l, 4 °C, 3 days): 7.1 cm
Weight of root (0.01 mg/l, 4 °C, 3 days): 2.5 g
Area of leaf (0.01 mg/l, 4 °C, 6 days): 12.4 cm^2
Height (0.01 mg/l, 4 °C, 6 days): 7.5 cm
Weight of root (0.01 mg/l, 4 °C, 6 days): 2.6 g
Area of leaf (0.01 mg/l, 4 °C, 9 days): 13.2 cm^2
Height (0.01 mg/l, 4 °C, 9 days): 7.7 cm
Weight of root (0.01 mg/l, 4 °C, 9 days): 2.9 g
Area of leaf (0.01 mg/l, 4 °C, 12 days): 13.5 cm^2
Height (0.01 mg/l, 4 °C, 12 days): 7.8 cm
Number of leaf (0.01 mg/l, 4 °C, 12 days): 3
Number of tiller (0.01 mg/l, 4 °C, 12 days): 2
Weight of root (0.01 mg/l, 4 °C, 12 days): 3.0 g
Area of leaf (0.01 mg/l, 5 °C, 3 days): 10.3 cm^2
Height (0.01 mg/l, 5 °C, 3 days): 7.4 cm
Weight of root (0.01 mg/l, 5 °C, 3 days): 2.8 g
Area of leaf (0.01 mg/l, 5 °C, 6 days): 13.1 cm^2
Height (0.01 mg/l, 5 °C, 6 days): 7.6 cm
Weight of root (0.01 mg/l, 5 °C, 6 days): 3.0 g
Area of leaf (0.01 mg/l, 5 °C, 9 days): 16.4 cm^2
Height (0.01 mg/l, 5 °C, 9 days): 8 cm
Weight of root (0.01 mg/l, 5 °C, 9 days): 3.4 g
Area of leaf (0.01 mg/l, 5 °C, 12 days): 17 cm^2
Height (0.01 mg/l, 5 °C, 12 days): 8.2 cm
Number of leaf (0.01 mg/l, 5 °C, 12 days): 4
Number of tiller (0.01 mg/l, 5 °C, 12 days): 3
Weight of root (0.01 mg/l, 5 °C, 12 days): 3.9 g
Area of leaf (0.1 mg/l, 1 °C, 3 days): 10.1 cm^2
Height (0.1 mg/l, 1 °C, 3 days): 7.0 cm
Weight of root (0.1 mg/l, 1 °C, 3 days): 2.8 g
Area of leaf (0.1 mg/l, 1 °C, 6 days): 11 cm^2
Height (0.1 mg/l, 1 °C, 6 days): 7.2 cm
Weight of root (0.1 mg/l, 1 °C, 6 days): 3.0 g
Area of leaf (0.1 mg/l, 1 °C, 9 days): 12.1 cm^2
Height (0.1 mg/l, 1 °C, 9 days): 7.3 cm
Weight of root (0.1 mg/l, 1 °C, 9 days): 3.4 g
Area of leaf (0.1 mg/l, 1 °C, 12 days): 13.4 cm^2
Height (0.1 mg/l, 1 °C, 12 days): 7.4 cm
Number of leaf (0.1 mg/l, 1 °C, 12 days): 3
Number of tiller (0.1 mg/l, 1 °C, 12 days): 3
Weight of root (0.1 mg/l, 1 °C, 12 days): 3.6 g
Area of leaf (0.1 mg/l, 2 °C, 3 days): 10.4 cm^2
Height (0.1 mg/l, 2 °C, 3 days): 7.1 cm
Weight of root (0.1 mg/l, 2 °C, 3 days): 2.8 g
Area of leaf (0.1 mg/l, 2 °C, 6 days): 11.2 cm^2
Height (0.1 mg/l, 2 °C, 6 days): 7.3 cm
Weight of root (0.1 mg/l, 2 °C, 6 days): 3.0 g
Area of leaf (0.1 mg/l, 2 °C, 9 days): 12.6 cm^2
Height (0.1 mg/l, 2 °C, 9 days): 7.3 cm
Weight of root (0.1 mg/l, 2 °C, 9 days): 3.1 g
Area of leaf (0.1 mg/l, 2 °C, 12 days): 13.6 cm^2
Height (0.1 mg/l, 2 °C, 12 days): 7.4 cm
Number of leaf (0.1 mg/l, 2 °C, 12 days): 3
Number of tiller (0.1 mg/l, 2 °C, 12 days): 3
Weight of root (0.1 mg/l, 2 °C, 12 days): 3.2 g
Area of leaf (0.1 mg/l, 3 °C, 3 days): 10.5 cm^2
Height (0.1 mg/l, 3 °C, 3 days): 7.4 cm
Weight of root (0.1 mg/l, 3 °C, 3 days): 2.5 g
Area of leaf (0.1 mg/l, 3 °C, 6 days): 12 cm^2
Height (0.1 mg/l, 3 °C, 6 days): 7.4 cm
Weight of root (0.1 mg/l, 3 °C, 6 days): 2.7 g
Area of leaf (0.1 mg/l, 3 °C, 9 days): 12.6 cm^2
Height (0.1 mg/l, 3 °C, 9 days): 7.8 cm
Weight of root (0.1 mg/l, 3 °C, 9 days): 2.9 g
Area of leaf (0.1 mg/l, 3 °C, 12 days): 13.4 cm^2
Height (0.1 mg/l, 3 °C, 12 days): 7.9 cm
Number of leaf (0.1 mg/l, 3 °C, 12 days): 3
Number of tiller (0.1 mg/l, 3 °C, 12 days): 2
Weight of root (0.1 mg/l, 3 °C, 12 days): 2.9 g
Area of leaf (0.1 mg/l, 4 °C, 3 days): 10.8 cm^2
Height (0.1 mg/l, 4 °C, 3 days): 7.5 cm
Weight of root (0.1 mg/l, 4 °C, 3 days): 2.5 g
Area of leaf (0.1 mg/l, 4 °C, 6 days): 12.1 cm^2
Height (0.1 mg/l, 4 °C, 6 days): 7.5 cm
Weight of root (0.1 mg/l, 4 °C, 6 days): 2.7 g
Area of leaf (0.1 mg/l, 4 °C, 9 days): 13.4 cm^2
Height (0.1 mg/l, 4 °C, 9 days): 8 cm
Weight of root (0.1 mg/l, 4 °C, 9 days): 2.9 g
Area of leaf (0.1 mg/l, 4 °C, 12 days): 13.8 cm^2
Height (0.1 mg/l, 4 °C, 12 days): 8.1 cm
Number of leaf (0.1 mg/l, 4 °C, 12 days): 3
Number of tiller (0.1 mg/l, 4 °C, 12 days): 2
Weight of root (0.1 mg/l, 4 °C, 12 days): 3.1 g
Area of leaf (0.1 mg/l, 5 °C, 3 days): 11 cm^2
Height (0.1 mg/l, 5 °C, 3 days): 7.5 cm
Weight of root (0.1 mg/l, 5 °C, 3 days): 2.9 g
Area of leaf (0.1 mg/l, 5 °C, 6 days): 12.9 cm^2
Height (0.1 mg/l, 5 °C, 6 days): 7.6 cm
Weight of root (0.1 mg/l, 5 °C, 6 days): 3.2 g
Area of leaf (0.1 mg/l, 5 °C, 9 days): 16.8 cm^2
Height (0.1 mg/l, 5 °C, 9 days): 8.1 cm
Weight of root (0.1 mg/l, 5 °C, 9 days): 3.5 g
Area of leaf (0.1 mg/l, 5 °C, 12 days): 19 cm^2
Height (0.1 mg/l, 5 °C, 12 days): 8.3 cm
Number of leaf (0.1 mg/l, 5 °C, 12 days): 3
Number of tiller (0.1 mg/l, 5 °C, 12 days): 2
Weight of root (0.1 mg/l, 5 °C, 12 days): 4.1 g
Area of leaf (1 mg/l, 1 °C, 3 days): 10 cm^2
Height (1 mg/l, 1 °C, 3 days): 7.2 cm
Weight of root (1 mg/l, 1 °C, 3 days): 2.6 g
Area of leaf (1 mg/l, 1 °C, 6 days): 11.2 cm^2
Height (1 mg/l, 1 °C, 6 days): 7.3 cm
Weight of root (1 mg/l, 1 °C, 6 days): 3.1 g
Area of leaf (1 mg/l, 1 °C, 9 days): 12.4 cm^2
Height (1 mg/l, 1 °C, 9 days): 7.3 cm
Weight of root (1 mg/l, 1 °C, 9 days): 3.2 g
Area of leaf (1 mg/l, 1 °C, 12 days): 13 cm^2
Height (1 mg/l, 1 °C, 12 days): 7.9 cm
Number of leaf (1 mg/l, 1 °C, 12 days): 3
Number of tiller (1 mg/l, 1 °C, 12 days): 3
Weight of root (1 mg/l, 1 °C, 12 days): 3.7 g
Area of leaf (1 mg/l, 2 °C, 3 days): 10.2 cm^2
Height (1 mg/l, 2 °C, 3 days): 7.2 cm
Weight of root (1 mg/l, 2 °C, 3 days): 2.6 g
Area of leaf (1 mg/l, 2 °C, 6 days): 11.7 cm^2
Height (1 mg/l, 2 °C, 6 days): 7.2 cm
Weight of root (1 mg/l, 2 °C, 6 days): 3.0 g
Area of leaf (1 mg/l, 2 °C, 9 days): 12.6 cm^2
Height (1 mg/l, 2 °C, 9 days): 7.3 cm
Weight of root (1 mg/l, 2 °C, 9 days): 3.2 g
Area of leaf (1 mg/l, 2 °C, 12 days): 13 cm^2
Height (1 mg/l, 2 °C, 12 days): 8 cm
Number of leaf (1 mg/l, 2 °C, 12 days): 3
Number of tiller (1 mg/l, 2 °C, 12 days): 3
Weight of root (1 mg/l, 2 °C, 12 days): 3.7 g
Area of leaf (1 mg/l, 3 °C, 3 days): 10.4 cm^2
Height (1 mg/l, 3 °C, 3 days): 7.4 cm
Weight of root (1 mg/l, 3 °C, 3 days): 2.5 g
Area of leaf (1 mg/l, 3 °C, 6 days): 12 cm^2
Height (1 mg/l, 3 °C, 6 days): 7.5 cm
Weight of root (1 mg/l, 3 °C, 6 days): 2.6 g
Area of leaf (1 mg/l, 3 °C, 9 days): 12.1 cm^2
Height (1 mg/l, 3 °C, 9 days): 7.9 cm
Weight of root (1 mg/l, 3 °C, 9 days): 2.9 g
Area of leaf (1 mg/l, 3 °C, 12 days): 13.2 cm^2
Height (1 mg/l, 3 °C, 12 days): 8.1 cm
Number of leaf (1 mg/l, 3 °C, 12 days): 3
Number of tiller (1 mg/l, 3 °C, 12 days): 2
Weight of root (1 mg/l, 3 °C, 12 days): 2.9 g
Area of leaf (1 mg/l, 4 °C, 3 days): 10.9 cm^2
Height (1 mg/l, 4 °C, 3 days): 7.4 cm
Weight of root (1 mg/l, 4 °C, 3 days): 2.5 g
Area of leaf (1 mg/l, 4 °C, 6 days): 12.6 cm^2
Height (1 mg/l, 4 °C, 6 days): 7.5 cm
Weight of root (1 mg/l, 4 °C, 6 days): 2.7 g
Area of leaf (1 mg/l, 4 °C, 9 days): 13.2 cm^2
Height (1 mg/l, 4 °C, 9 days): 8.0 cm
Weight of root (1 mg/l, 4 °C, 9 days): 3.0 g
Area of leaf (1 mg/l, 4 °C, 12 days): 14 cm^2
Height (1 mg/l, 4 °C, 12 days): 8.2 cm
Number of leaf (1 mg/l, 4 °C, 12 days): 3
Number of tiller (1 mg/l, 4 °C, 12 days): 2
Weight of root (1 mg/l, 4 °C, 12 days): 3.2 g
Area of leaf (1 mg/l, 5 °C, 3 days): 11.1 cm^2
Height (1 mg/l, 5 °C, 3 days): 7.4 cm
Weight of root (1 mg/l, 5 °C, 3 days): 2.9 g
Area of leaf (1 mg/l, 5 °C, 6 days): 13.1 cm^2
Height (1 mg/l, 5 °C, 6 days): 7.7 cm
Weight of root (1 mg/l, 5 °C, 6 days): 3.5 g
Area of leaf (1 mg/l, 5 °C, 9 days): 18 cm^2
Height (1 mg/l, 5 °C, 9 days): 8.2 cm
Weight of root (1 mg/l, 5 °C, 9 days): 3.7 g
Area of leaf (1 mg/l, 5 °C, 12 days): 20 cm^2
Height (1 mg/l, 5 °C, 12 days): 8.4 cm
Number of leaf (1 mg/l, 5 °C, 12 days): 3
Number of tiller (1 mg/l, 5 °C, 12 days): 2
Weight of root (1 mg/l, 5 °C, 12 days): 4.5 g
